Experimental data published in patent US20190223443A1, “Methods to Increase Corn Growth” (Valent BioSciences LLC, priority 2015, published 2019).

Tests used:
Assay type in all cases: in vivo
Hybrid corn [1] = test: Vigor rating after foliar treatment at V2, field, Chabás, Santa Fe, Argentina (Example 1); conditions: 1 to 9 scale (untreated=5.0)
Method: Hybrid corn was grown under conventional tillage in Chabás, Santa Fe, Argentina. At V2 growth stage, GA3 or a combination of GA3 and ABA was applied as a foliar treatment. Vigor was rated on a 1 to 9 scale (untreated=5.0) following spray applications at the times specified in Table 1.

Hybrid corn [2] = test: Final yield, field, Chabás, Santa Fe, Argentina (Example 1); conditions: untreated 8096
Hybrid corn [3] = test: Corn trial under conventional tillage, Lozada, Argentina, sprayed at V3, yield at harvest (Example 3); conditions: for Yield difference from control treatment: difference of the Yield (kg/ha) column; for Yield: untreated 3840
Text: In a corn trial under conventional tillage in Lozada, Argentina, hybrid corn was planted and sprayed at 16 days post-planting at the V3 growth stage.

[4] = system: Hybrid 1 and Hybrid 2 corn; test: Field study Woodstock, Ill., sprayed at V2, shoot height (Examples 4 and 8); conditions: for Growth response to spray treatment (in words): sprayed at V2
Method: (§1) A field study was conducted at Woodstock, Ill. Seeds of two commercial varieties were sown: Hybrid 1 was northern corn belt variety with 100 days to maturity, while Hybrid 2 was a central corn belt variety with 111 days to maturity. Corn of these two varieties was sown into cool soil on May 7, 2014. Plants were sprayed at V2 with solutions containing a non-ionic surfactant (0.25%, v/v) at 15 gallons of spray solution/acre and growth was followed for 14 days. At seven days and 14 days after treatment shoot heights in centimeters were measured for 60 plants in each replicate.
as §1, with “GA3 refers to gibberellic acid” for “At seven days”, “ABA refers to abscisic acid. Results of the study are found in Table 10 below describing” for “14 days after treatment”, “height” for “heights”, “centimeters.” for “centimeters were measured for 60 plants in each replicate.”

[5] = system: Hybrid 1 and Hybrid 2 corn; test: Field study, sprayed at V4, plant height (Examples 5 and 9)
Method: This study was conducted and the data analyzed as described above in Example 3 with the following the exceptions. The plants were sprayed at the V4 stage and plant height was measured at seven and 13 days post treatment.
Another study was conducted and the data analyzed as described Example 8, above, with the following the exceptions. The plants were sprayed at the V4 stage and plant height was measured at seven and 13 days post treatment. Results of this study are found in Table 11, below, describing shoot height in centimeters.

[6] = system: Hybrid 1, Hybrid 2 and Hybrid 3 corn; test: Long Grove, Ill., sprayed at V4, distance of growing point relative to soil surface (Examples 6 and 10); conditions: for Distance of the growing point relative to the soil surface, 7 days post treatment / Distance of the growing point relative to the soil surface, 13 days post treatment / Distance of the growing point relative to the soil surface, 20 days post treatment / Distance of the growing point relative to the soil surface, 4 days post treatment: Table 7; for Distance of growing point relative to soil surface, 7 days post treatment / Distance of growing point relative to soil surface, 13 days post treatment / Distance of growing point relative to soil surface, 20 days post treatment / Distance of growing point relative to soil surface, 4 days post treatment: Table 12
Method: In this example, seeds of three varieties were sown at Long Grove, Ill. and were grown under similar conditions as in Examples 3 to 6. Three hybrid corn varieties were grown, Hybrid 1 and 2 as above, and Hybrid 3 which was another central corn belt variety requiring 111 days to maturity.
At the early V-stages, the growing point of the corn stem is below the soil surface and emerges from the soil when the plants are at V5 or later, depending on the variety. In spring, the soil is generally cooler than the air temperature. Therefore, there would be an advantage to getting the growing point above the soil surface to facilitate faster growth.
The plants were sprayed at the V4 growth stage. Plants were dug from the ground at days after spray. Stems of five plants per replicate, three replicates per treatment were split and the distance of the growing point relative to the soil surface was determined in mm.
Seeds of three varieties were sown at Long Grove, Ill. and were grown under similar conditions as in Example 8, above. Three hybrid corn varieties were grown, Hybrid 1 and 2 as described in Examples 8 and 9, above, and Hybrid 3 which was another central corn belt variety requiring 111 days to maturity. The plants were sprayed at the V4 growth stage. Plants were dug from the ground at days after spray. Stems of five plants per replicate, three replicates per treatment were split and the distance of the growing point relative to the soil surface was determined in mm. Results of this study are found in Table 12, below, describing distance of growing point relative to soil surface in millimeters.

corn hybrid B73 X Mo17 = test: Greenhouse study Long Grove, Ill., sprayed at V1-V2, change in height and synergy (Example 7)
Method: A greenhouse study was conducted at Long Grove, Ill. Seeds of the corn hybrid B73 X Mo17 was sown into potted soil on May 7, 2014. Plants were sprayed at 11 days post sowing (V1-V2) with solutions containing a non-ionic surfactant (0.25%, v/v) and growth was followed for 6 days. GA3 refers to gibberellic acid and ABA refers to abscisic acid. Results of the study described in 3. above can be seen in the following tables describing change in height in centimeters from day of treatment (Table 8) and change in height in centimeters from day of treatment compared to control (Table 9).
Synergy is calculated as follows: […]
Observed difference in height from control/Expected difference in height from control, where expected difference in height from control is the sum of the observed difference in height of each active ingredient applied alone. If the ratio between the experimentally observed efficacy of the mixture and the expected efficacy of the mixture is greater than 1, than synergistic interactions are present in the mixture.

[7] = GA3 16 g/ha, mixtures plus ABA as labelled
[8] = GA3 120 ppm, mixtures plus ABA 12 (10:1), 10 (12:1) or 8.6 ppm (14:1)

C=C1C[C@]23C[C@@]1(O)CC[C@H]2[C@@]12C=C[C@H](O)[C@@](C)(C(=O)O1)[C@H]2[C@@H]3C(=O)O [GA3, gibberellic acid]
Vigor 3 d post-spraying (Hybrid corn [1]; GA3 8 g/ha): 5.2 | Vigor 7 d post-spraying (Hybrid corn [1]; GA3 8 g/ha): 5.3 | Vigor 15 d post-spraying (Hybrid corn [1]; GA3 8 g/ha): 5.5 | Vigor 3 d post-spraying (Hybrid corn [1]; [7]): 5.5 | Vigor 7 d post-spraying (Hybrid corn [1]; [7]): 5.6 | Vigor 15 d post-spraying (Hybrid corn [1]; [7]): 6.0 | Yield (Hybrid corn [2]; GA3 8 g/ha): 8355 kg/ha | Yield (Hybrid corn [2]; [7]): 8769 kg/ha | Yield difference from control treatment (Hybrid corn [3]; GA3 8 g/ha): 370 | Yield (Hybrid corn [3]; GA3 8 g/ha): 4210 kg/ha | Yield difference from control treatment (Hybrid corn [3]; [7]): 345 | Yield (Hybrid corn [3]; [7]): 4185 kg/ha | Shoot height, 7 days post treatment ([4]; Hybrid 1, Table 5, control 0:0 37.75): 36.07 cm | Shoot height, 14 days post treatment ([4]; Hybrid 1, Table 5, control 0:0 57.90): 57.08 cm | Shoot height, 7 days post treatment ([4]; Hybrid 1, Table 10, control 0:0 37.75): 36.07 cm | Shoot height, 14 days post treatment ([4]; Hybrid 1, Table 10, control 0:0 57.90): 57.08 cm | Growth response to spray treatment (in words) ([4]; Hybrid 1): did not respond | Shoot height, 7 days post treatment ([4]; Hybrid 2, Table 5, control 0:0 29.56): 31.33 cm | Shoot height, 14 days post treatment ([4]; Hybrid 2, Table 5, control 0:0 50.16): 51.20 cm | Shoot height, 7 days post treatment ([4]; Hybrid 2, Table 10, control 0:0 29.56): 31.33 cm | Shoot height, 14 days post treatment ([4]; Hybrid 2, Table 10, control 0:0 50.16): 51.20 cm | Growth response to spray treatment (in words) ([4]; Hybrid 2): growth increased | Plant height, 7 days post treatment ([5]; Hybrid 1, Table 6, control 0:0 76.50): 78.60 cm | Plant height, 13 days post treatment ([5]; Hybrid 1, Table 6, control 0:0 117.61): 116.44 cm | Shoot height, 7 days post treatment ([5]; Hybrid 1, Table 11, control 0:0 76.50): 78.60 cm | Shoot height, 13 days post treatment ([5]; Hybrid 1, Table 11, control 0:0 117.61): 116.44 cm | Plant height, 7 days post treatment ([5]; Hybrid 2, Table 6, control 0:0 63.76): 68.25 cm | Plant height, 13 days post treatment ([5]; Hybrid 2, Table 6, control 0:0 98.71): 102.40 cm | Shoot height, 7 days post treatment ([5]; Hybrid 2, Table 11, control 0:0 63.76): 68.25 cm | Shoot height, 13 days post treatment ([5]; Hybrid 2, Table 11, control 0:0 98.71): 102.40 cm | Distance of the growing point relative to the soil surface, 7 days post treatment ([6]; Hybrid 1, control 0:0 17.47): 34.53 mm | Distance of the growing point relative to the soil surface, 13 days post treatment ([6]; Hybrid 1, control 0:0 166.40): 163.27 mm | Distance of the growing point relative to the soil surface, 20 days post treatment ([6]; Hybrid 1, control 0:0 644.00): 603.80 mm | Distance of the growing point relative to the soil surface, 4 days post treatment ([6]; Hybrid 1, control 0:0 −1.13): 4.20 mm | Distance of growing point relative to soil surface, 7 days post treatment ([6]; Hybrid 1, control 0:0 17.47): 34.53 mm | Distance of growing point relative to soil surface, 13 days post treatment ([6]; Hybrid 1, control 0:0 166.40): 163.27 mm | Distance of growing point relative to soil surface, 20 days post treatment ([6]; Hybrid 1, control 0:0 644.00): 603.80 mm | Distance of growing point relative to soil surface, 4 days post treatment ([6]; Hybrid 1, control 0:0 −1.13): 4.20 mm | Distance of the growing point relative to the soil surface, 4 days post treatment ([6]; Hybrid 2, control 0:0 0.80): 1.87 mm | Distance of the growing point relative to the soil surface, 7 days post treatment ([6]; Hybrid 2, control 0:0 18.80): 24.07 mm | Distance of the growing point relative to the soil surface, 13 days post treatment ([6]; Hybrid 2, control 0:0 128.87): 130.93 mm | Distance of the growing point relative to the soil surface, 20 days post treatment ([6]; Hybrid 2, control 0:0 517.13): 515.53 mm | Distance of growing point relative to soil surface, 4 days post treatment ([6]; Hybrid 2, control 0:0 0.80): 1.87 mm | Distance of growing point relative to soil surface, 7 days post treatment ([6]; Hybrid 2, control 0:0 18.80): 24.07 mm | Distance of growing point relative to soil surface, 13 days post treatment ([6]; Hybrid 2, control 0:0 128.87): 130.93 mm | Distance of growing point relative to soil surface, 20 days post treatment ([6]; Hybrid 2, control 0:0 517.13): 515.53 mm | Distance of the growing point relative to the soil surface, 4 days post treatment ([6]; Hybrid 3, control 0:0 0.53): 3.67 mm | Distance of the growing point relative to the soil surface, 7 days post treatment ([6]; Hybrid 3, control 0:0 25.60): 27.87 mm | Distance of the growing point relative to the soil surface, 13 days post treatment ([6]; Hybrid 3, control 0:0 147.73): 164.67 mm | Distance of the growing point relative to the soil surface, 20 days post treatment ([6]; Hybrid 3, control 0:0 619.33): 653.53 mm | Distance of growing point relative to soil surface, 4 days post treatment ([6]; Hybrid 3, control 0:0 0.53): 3.67 mm | Distance of growing point relative to soil surface, 7 days post treatment ([6]; Hybrid 3, control 0:0 25.60): 27.87 mm | Distance of growing point relative to soil surface, 13 days post treatment ([6]; Hybrid 3, control 0:0 147.73): 164.67 mm | Distance of growing point relative to soil surface, 20 days post treatment ([6]; Hybrid 3, control 0:0 619.33): 653.53 mm | Observed change in height from day of treatment compared to control, 2 days post treatment (corn hybrid B73 X Mo17; [8]): 3.13 cm | Observed change in height from day of treatment compared to control, 4 days post treatment (corn hybrid B73 X Mo17; [8]): 4.97 cm | Observed change in height from day of treatment compared to control, 6 days post treatment (corn hybrid B73 X Mo17; [8]): 7.21 cm | Change in height from day of treatment, 2 days post treatment (corn hybrid B73 X Mo17; GA3 120 ppm, mixtures plus ABA 12 (10:1), 10 (12:1) or 8.6 ppm (14:1), control 9.74): 12.87 cm | Change in height from day of treatment, 4 days post treatment (corn hybrid B73 X Mo17; GA3 120 ppm, mixtures plus ABA 12 (10:1), 10 (12:1) or 8.6 ppm (14:1), control 22.59): 27.56 cm | Change in height from day of treatment, 6 days post treatment (corn hybrid B73 X Mo17; GA3 120 ppm, mixtures plus ABA 12 (10:1), 10 (12:1) or 8.6 ppm (14:1), control 43.03): 50.24 cm | Height of the corn compared to the control (in words) (corn hybrid B73 X Mo17; applied alone, Tables 8 and 9): increased the height
